In this experiment the target is USP7 (Homo sapiens (Human), UniProt Q93009). Put plainly: USP7 Biochemical IC50 Assay. Conditions: FLAG-USP7; enzyme and compound incubated 30 min at room temp; TAMRA labelled peptide-ubiquitin fluorescence polarisation substrate; read after 2 hr; read-out: IC50 range. The protocol: The USP7 construct was PCR amplified and cloned into a pFLAG-CMV-6a vector (Sigma-Aldrich) with an N-terminal FLAG tag. HEK293T cells were transfected with FLAG-USP7 using TransIT-LT1 transfection reagent (Mirus) according to the manufacturer's instructions. Cells were harvested 40 hours after transfection. […] The resin was washed two times with low salt buffer plus protease inhibitors (complete mini, Roche) and phosphatase inhibitors (PhosSTOP mini, Roche) and one time with high salt buffer (20 mM Tris, pH 7.5, 500 mM NaCl, 0.5 mM EDTA, 5 mM beta-mercaptoethanol, protease inhibitors (complete mini, Roche) and phosphatase inhibitors (PhosSTOP mini, Roche). To elute the bound USP7, elution buffer (10 mM Tris, pH 7.5, 150 mM NaCl, 0.5 mM EDTA, 10% glycerol, 0.5% NP40, 5 mM beta-mercaptoethanol, 0.15 mg/ml 3×FLAG peptide (Sigma-Aldrich)) was added to the resin and incubated at 4° C. for 2.5 hours rotating. The resin was centrifuged at 4000 rpm for 30 seconds, and the supernatant containing purified FLAG-USP7 was removed and stored at −80° C.
USP7, sequence (Q93009 whole entry): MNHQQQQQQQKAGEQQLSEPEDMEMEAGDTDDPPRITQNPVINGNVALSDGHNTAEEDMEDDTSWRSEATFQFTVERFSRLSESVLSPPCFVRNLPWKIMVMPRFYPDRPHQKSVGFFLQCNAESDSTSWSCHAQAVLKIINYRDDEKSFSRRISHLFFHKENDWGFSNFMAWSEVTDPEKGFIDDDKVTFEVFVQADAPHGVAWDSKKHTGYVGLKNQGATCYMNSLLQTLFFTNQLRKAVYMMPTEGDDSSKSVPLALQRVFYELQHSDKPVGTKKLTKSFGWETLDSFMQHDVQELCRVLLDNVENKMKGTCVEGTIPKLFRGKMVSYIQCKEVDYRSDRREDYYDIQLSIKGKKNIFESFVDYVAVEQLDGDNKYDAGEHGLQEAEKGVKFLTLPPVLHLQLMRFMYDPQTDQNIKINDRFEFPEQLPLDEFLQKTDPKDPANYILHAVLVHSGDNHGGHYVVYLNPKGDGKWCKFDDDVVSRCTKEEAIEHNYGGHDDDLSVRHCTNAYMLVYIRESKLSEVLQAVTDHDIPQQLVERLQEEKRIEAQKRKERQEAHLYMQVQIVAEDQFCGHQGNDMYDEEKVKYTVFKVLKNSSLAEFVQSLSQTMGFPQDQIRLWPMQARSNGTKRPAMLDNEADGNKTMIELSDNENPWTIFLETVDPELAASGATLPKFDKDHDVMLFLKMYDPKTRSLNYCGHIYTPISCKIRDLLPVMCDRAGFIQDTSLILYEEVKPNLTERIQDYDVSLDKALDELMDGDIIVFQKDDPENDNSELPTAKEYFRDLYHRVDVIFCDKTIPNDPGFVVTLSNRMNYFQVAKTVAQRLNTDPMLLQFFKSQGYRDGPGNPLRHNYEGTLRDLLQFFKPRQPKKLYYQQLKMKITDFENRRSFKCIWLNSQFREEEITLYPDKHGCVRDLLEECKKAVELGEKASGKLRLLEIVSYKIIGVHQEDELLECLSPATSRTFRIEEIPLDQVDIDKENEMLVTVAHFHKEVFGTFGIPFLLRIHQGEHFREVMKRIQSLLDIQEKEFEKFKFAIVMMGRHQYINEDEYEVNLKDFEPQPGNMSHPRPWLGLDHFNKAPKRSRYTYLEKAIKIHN
USP7 Biochemical IC50 Assay
A typical 8-point dilution series would be 100, 30, 10, 3, 1, 0.3, 0.1, 0.03 μM final. […] Either 1 μl of 50% DMSO or diluted compound was added to the plate. USP7 was diluted in reaction buffer (20 mM Tris, pH 7.5, 100 mM NaCl, 0.05% Tween 20, 0.5 mg/ml BSA, 5 mM—beta mercaptoethanol) to the equivalent of 0.0025 μl/well and 10 μl of diluted USP7 was added to the compound. Enzyme and compound were incubated for 30 min at room temp. Reactions were initiated by the addition of 50 nM of TAMRA labelled peptide linked to ubiquitin via an iso-peptide bond as fluorescence polarisation substrate. Reactions were read immediately after addition of substrate and following a 2 hr incubation at room temperature. Readings were performed on a Pherastar Plus (BMG Labtech). λ Excitation 540 nm; λ Emission 590 nm.
(In fluorescence polarisation assays a small probe gives low polarisation when free and higher when bound to something large.)

Some results are limits rather than exact numbers.

Regarding `Cn1nccc1-c1n[nH]c2c1CN(C#N)C2` [Example 39, 3-(1-Methyl-1H-pyrazol-5-yl)-4,6-dihydropyrrolo[3,4-c]pyrazole-5(1H)-carbonitrile], the IC50 (commonly the point on the concentration scale where inhibition reaches its midpoint) is 10 to 30 µM. The same measure for `N#CN1Cc2[nH]nc(-c3cccc(OC(F)(F)F)c3)c2C1` [Example 40, 3-(3-(Trifluoro-methoxy)phenyl)-4,6-dihydropyrrolo[3,4-c]pyrazole-5(1H)-carbonitrile]: 10 to 30 µM.

Turning to `N#CN1Cc2[nH]nc(-c3ccc(Oc4ccccc4)cc3)c2C1` [Example 41, 3-(4-Phenoxyphenyl)-4,6-dihydropyrrolo[3,4-c]pyrazole-5(1H)-carbonitrile], the IC50 was under 10 µM. For the compound `N#Cc1ccc(-c2n[nH]c3c2CN(C#N)C3)cc1` [Example 42, 3-(4-Cyanophenyl)-4,6-dihydropyrrolo[3,4-c]pyrazole-5(1H)-carbonitrile], the IC50 is under 10 µM. Consider `N#CN1Cc2[nH]nc(-c3ccc(C(F)(F)F)cc3F)c2C1` [Example 43, 3-(2-Fluoro-4-(trifluoromethyl)phenyl)-4,6-dihydropyrrolo[3,4-c]pyrazole-5(1H)-carbonitrile], for which the IC50 is under 10 µM. Take `N#CN1Cc2[nH]nc(-c3cc(OC(F)(F)F)ccc3Cl)c2C1` [Example 44, 3-(2-Chloro-5-(trifluoro-methoxy)phenyl)-4,6-dihydropyrrolo[3,4-c]pyrazole-5(1H)-carbonitrile]: the IC50 is under 10 µM. Turning to `CNC(=O)c1ccc(-c2n[nH]c3c2CN(C#N)C3)cn1` [Example 45, 5-(5-Cyano-1,4,5,6-tetrahydropyrrolo[3,4-c]pyrazol-3-yl)-N-methylpicolinamide], the IC50 is under 10 µM. The result for `COc1ccc(-c2n[nH]c3c2CN(C#N)C3)cn1` [Example 46, 3-(6-Methoxypyridin-3-yl)-4,6-dihydro-pyrrolo[3,4-c]pyrazole-5(1H)-carbonitrile] reads under 10 µM; that for `CN(C)S(=O)(=O)c1cccc(-c2n[nH]c3c2CN(C#N)C3)c1` [Example 47, 3-(5-Cyano-1,4,5,6-tetrahydropyrrolo[3,4-c]pyrazol-3-yl)-N,N-dimethylbenzene-sulfonamide], under 10 µM; that for `CC(C)Oc1ccc(F)cc1-c1n[nH]c2c1CN(C#N)C2` [Example 48, 3-(5-Fluoro-2-isopropoxyphenyl)-4,6-dihydropyrrolo[3,4-c]pyrazole-5(1H)-carbonitrile], under 10 µM. The same measure for `N#CN1Cc2[nH]nc(-c3ccc(C(=O)NCc4ccccc4)cc3)c2C1` [Example 49, N-Benzyl-4-(5-cyano-1,4,5,6-tetrahydropyrrolo[3,4-c]pyrazol-3-yl)benzamide]: under 10 µM. On to `CC(C)Oc1ccc(-c2n[nH]c3c2CN(C#N)C3)cn1` [Example 50, 3-(6-Isopropoxypyridin-3-yl)-4,6-dihydropyrrolo[3,4-c]pyrazole-5(1H)-carbonitrile], for which the IC50 was under 10 µM. The same measure for `CN1CCN(C(=O)c2ccc(-c3n[nH]c4c3CN(C#N)C4)cc2)CC1` [Example 51, 3-(4-(4-Methylpiperazine-1-carbonyl)phenyl)-4,6-dihydropyrrolo[3,4-c]pyrazole-5(1H)-carbonitrile]: under 10 µM; for `Cn1ncc2cc(-c3n[nH]c4c3CN(C#N)C4)ccc21` [Example 52, 3-(1-Methyl-1H-indazol-5-yl)-4,6-dihydropyrrolo[3,4-c]pyrazole-5(1H)-carbonitrile]: under 10 µM; for `N#CN1Cc2[nH]nc(-c3ccnn3Cc3ccccc3)c2C1` [Example 53, 3-(1-Benzyl-1H-pyrazol-5-yl)-4,6-dihydropyrrolo[3,4-c]pyrazole-5(1H)-carbonitrile]: 10 to 30 µM. For `Cc1ccc2[nH]ncc2c1-c1n[nH]c2c1CN(C#N)C2` [Example 54, 3-(5-Methyl-1H-indazol-4-yl)-4,6-dihydropyrrolo[3,4-c]pyrazole-5(1H)-carbonitrile], the IC50 was under 10 µM. The result for `N#CN1Cc2[nH]nc(-c3cccc(S(=O)(=O)NC4CC4)c3)c2C1` [Example 55, 3-(5-Cyano-1,4,5,6-tetrahydropyrrolo[3,4-c]pyrazol-3-yl)-N-cyclopropylbenzene-sulfonamide] reads under 10 µM. On to `N#CN1Cc2[nH]nc(-c3cccc(NS(=O)(=O)C4CC4)c3)c2C1` [Example 56, N-(3-(5-Cyano-1,4,5,6-tetrahydropyrrolo[3,4-c]pyrazol-3-yl)phenyl)cyclo-propanesulfonamide], for which the concentration for half-maximal inhibition (IC50) is under 10 µM. The same measure for `N#CN1Cc2[nH]nc(-c3cccc(F)c3)c2C1` [Example 57, 3-(3-Fluorophenyl)-4,6-dihydropyrrolo[3,4-c]pyrazole-5(1H)-carbonitrile]: under 10 µM; for `N#CN1Cc2[nH]nc(-c3ccccc3F)c2C1` [Example 58, 3-(2-Fluorophenyl)-4,6-dihydropyrrolo[3,4-c]pyrazole-5(1H)-carbonitrile]: under 10 µM; for `N#CN1Cc2[nH]nc(-c3ccc(F)cc3)c2C1` [Example 59, 3-(4-Fluorophenyl)-4,6-dihydropyrrolo[3,4-c]pyrazole-5(1H)-carbonitrile]: under 10 µM.

As for `Cc1ccc(F)c(-c2nn(C)c3c2CN(C#N)C3)c1` [Example 60, 3-(2-fluoro-5-methylphenyl)-1-methyl-4,6-dihydropyrrolo[3,4-c]pyrazole-5(1H)-carbonitrile], the IC50 is under 10 µM. The same measure for `Cc1ccc(F)c(-c2c3c(nn2C)CN(C#N)C3)c1` [Example 61, 3-(2-fluoro-5-methylphenyl)-2-methyl-2,6-dihydropyrrolo[3,4-c]pyrazole-5(4H)-carbonitrile]: 10 to 30 µM; for `COc1ccc(C(C)C)cc1-c1nn(C)c2c1CN(C#N)C2` [Example 62, 3-(5-Isopropyl-2-methoxyphenyl)-1-methyl-4,6-dihydropyrrolo[3,4-c]pyrazole-5(1H)-carbonitrile]: under 10 µM.

Consider `COc1ccc(C(C)C)cc1-c1c2c(nn1C)CN(C#N)C2` [Example 63, 3-(5-Isopropyl-2-methoxyphenyl)-2-methyl-2,6-dihydropyrrolo[3,4-c]pyrazole-5(4H)-carbonitrile], for which the IC50 is 10 to 30 µM. On to `CCc1ccc(OC)c(-c2n[nH]c3c2CN(C#N)C3)c1` [Example 64, 3-(5-Ethyl-2-methoxyphenyl)-4,6-dihydropyrrolo[3,4-c]pyrazole-5(1H)-carbonitrile], for which the IC50 is under 10 µM. As to `N#CN1Cc2[nH]nc(CNC(=O)c3cn4cc(Cl)ccc4n3)c2C1` [Example 65, 6-Chloro-N-((5-cyano-1,4,5,6-tetrahydropyrrolo[3,4-c]pyrazol-3-yl)methyl)-imidazo[1,2-a]pyridine-2-carboxamide], the IC50 is under 10 µM. The result for `CN1CCN(c2ccc(-c3n[nH]c4c3CN(C#N)C4)cc2)CC1` [Example 66, 3-(4-(4-Methylpiperazin-1-yl)phenyl)-4,6-dihydro-pyrrolo[3,4-c]pyrazole-5(1H)-carbonitrile] reads under 10 µM; that for `COc1cc(Cl)ccc1-c1n[nH]c2c1CN(C#N)C2` [Example 67, 3-(4-Chloro-2-methoxyphenyl)-4,6-dihydropyrrolo[3,4-c]pyrazole-5(4H)-carbonitrile], under 10 µM. On to `CN1CCC(n2cc(-c3n[nH]c4c3CN(C#N)C4)cn2)CC1` [Example 68, 3-(1-(1-Methylpiperidin-4-yl)-1H-pyrazol-4-yl)-4,6-dihydropyrrolo[3,4-c]pyrazole-5(1H)-carbonitrile], for which the IC50 is under 10 µM.

As for `CN1CCN(c2ccc(-c3n[nH]c4c3CN(C#N)C4)cn2)CC1` [Example 69, 3-(6-(4-Methylpiperazin-1-yl)pyridin-3-yl)-4,6-dihydropyrrolo[3,4-c]pyrazole-5(1H)-carbonitrile], the IC50 is under 10 µM. The same measure for `COc1cc(-n2cccn2)ccc1-c1n[nH]c2c1CN(C#N)C2` [Example 70, 3-(2-Methoxy-4-(1H-pyrazol-1-yl)phenyl)-4,6-dihydropyrrolo[3,4-c]pyrazole-5(4H)-carbonitrile]: under 10 µM; for `CN1CCN(c2cccc(-c3n[nH]c4c3CN(C#N)C4)c2)CC1` [Example 71, 3-(3-(4-Methylpiperazin-1-yl)phenyl)-4,6-dihydropyrrolo[3,4-c]pyrazole-5(1H)-carbonitrile]: under 10 µM; for `N#CN1Cc2[nH]nc(-c3ccc(N4CCOCC4)cc3)c2C1` [Example 72, 3-(4-Morpholinophenyl)-4,6-dihydropyrrolo[3,4-c]pyrazole-5(1H)-carbonitrile]: under 10 µM. The result for `CN1CCN(c2ccc(-c3n[nH]c4c3CN(C#N)C4)c(F)c2)CC1` [Example 73, 3-(2-Fluoro-4-(4-methylpiperazin-1-yl)phenyl)-4,6-dihydro-pyrrolo[3,4-c]pyrazole-5(1H)-carbonitrile] reads under 10 µM.

Source of the values: patent publication US11306096B2, “4,6 dihydropyrrolo [3,4-C] pyrazole-5 (1H)-carbonitrile derivates for treating cancer” (MISSION THERAPEUTICS LIMITED, priority 2016, dated 2022).
